Assay results as given in US11576913B2 (priority 2018, dated 2023).
Like-named read-outs stand apart in the source and are kept apart here.

What was measured:
[1] = system: healthy, non-dependent, recreational sedative users; assay: Human abuse potential study, adverse events and tolerability; type: in vivo; details: for Amnesia / Ataxia / Diplopia / Dizziness / Euphoric mood / Headache / Hiccups / Nausea / Somnolence / Vision blurred: N = 50
Method: Adverse events were coded to MedDRA terms. Data for AEs were analyzed using the treatment-emergent signs and symptoms (TESS) philosophy. Treatment-emergent signs and symptoms are defined as AEs that: • Emerge during treatment, having been absent at pretreatment; or • Reemerge during treatment, having been present at pretreatment but stopped prior to treatment; or • Worsen in intensity during treatment relative to the pretreatment state, when the AE is continuous.
Subjects were counted only once in the incidence count for a specific MedDRA Preferred Term, although a MedDRA Preferred Term might be reported more than once for a particular subject. Separate summaries will be provided for Treatment-emergent AEs (“TEAEs”) by maximum intensity (mild, moderate, severe) and relationship (yes, no) to study drug. A TEAE was considered related to study drug if the investigator reported the event to be “definitely, probably, possibly, or unlikely” related to treatment on the CRF.

clinical [2] = type: in vivo, human; details: for mean fraction of dose excreted unchanged in urine over 48 hours (Fe48): day 1; for mean fraction of dose excreted unchanged in urine over 24 hours (Fe24): day 16
[3] = type: in vivo, human; details: Compound (1C) tablets administered orally
Text: The comparators in an abuse potential study are typically controlled substances from the same pharmacologic class as the investigational drug. However, Compound (1C) is a novel drug class for which no controlled substances/drugs of abuse are available for comparison. […] There was no evidence of other effects of interest to abusers, such as perceptual disturbances or stimulation. […] Placebo control was used to establish the frequency and magnitude of changes in clinical endpoints that may occur in the absence of active treatment as well as to minimize subject and investigator bias.

[4] = type: in vivo, rat; details: within 48 hours of oral dosing
Text: Specifically, liquid scintillation counting (“LSC”) was used for the determination of total radiolabeled Compound (1C) material, i.e., the original or parent compound and its metabolites. […] Using ^14C as a radiolabel for pharmacokinetic studies is a recognized technique and embedding the radiolabel into the ring structure was done to limit migration or exchange of the radiolabel to non-Compound (1C)-related molecules. The specific radioactivity for the lot of [^14C]-Compound (1C) synthesized was 2.50 MBq/mg (67.6 μCi/mg) [3.49 MBq/mg (94.4 μCi/mg) if the material were to be present as the free base form] with a radiochemical purity of greater than 98.5% as determined by HPLC. The synthesized radiolabeled [^14C]-Compound (1C) was stored away from light at a temperature of −80° C. before use.
Following oral administration of [^14C]-Compound (1C) (in an appropriate vehicle, e.g., a methyl cellulose suspension) to the experimental animals, excreta samples were collected over specified time intervals. Urine samples were collected at fixed intervals post dosing. Fecal samples were homogenized and diluted prior to being solubilized. Aliquots of these samples were counted following the addition of liquid scintillation fluid thereto. Detection limits for radioactivity in the excreta samples were set at twice the background count (from blank samples) as determined by LSC. The [^14C]-Compound (1C) was stable for about 4-5 hours in urine at a temperature of about 25° C. and, when kept refrigerated at 4° C., for up to 15 days (rat urine) and 36 days (dog urine). Recovery of [^14C]-Compound (1C) from rat urine was typically from about 91.6 to about 99.1%.

[5] = system: subjects suffering from the Insomnia Disorder adult insomnia; type: in vivo, human; details: for mean change in DSST score net of placebo, compared with suvorexant: about 9 hours after administration, vs 10, 20 and 40 mg suvorexant, FIG. 11
Method: Literature data for indications of sleep efficacy and attendant residual effects after suvorexant administration, orally administered as BELSOMRA tablets at a single dose of 10 mg, 20 mg, and 40 mg, was available. Literature data for indications of sleep efficacy after zolpidem administration, orally administered as AMBIEN CR tablets, i.e., an extended-release tablet comprising the tartrate salt, in a single dose of 12.5 mg was also available. […] Additionally, the data shown in FIG. 8 through FIG. 11 are for the treatment effect net of placebo.

clinical [6] = type: in vivo, human
Method: The highest doses tested in healthy subjects were for a 30-mg single dose and a 10-mg multiple dose (once daily nighttime dose for 14 days). The highest dose tested in subjects with insomnia was 10 mg.

SMILES: O=C(O)c1nc2ccccc2n([C@H]2C[C@H]3CCC[C@@H](C2)N3C2CC3CCCC(C3)C2)c1=O (stereo partly drawn) [Compound (1C)]
- AE profile compared with triazolam ([1]; 1 mg): more preferable AE profile than triazolam
- Amnesia ([1]; 1 mg): 0 n (%)
- Ataxia ([1]; 1 mg): 1 (2) n (%)
- Diplopia ([1]; 1 mg): 0 n (%)
- Dizziness ([1]; 1 mg): 2 (4) n (%)
- Euphoric mood ([1]; 1 mg): 0 n (%)
- Headache ([1]; 1 mg): 5 (10) n (%)
- Hiccups ([1]; 1 mg): 0 n (%)
- Nausea ([1]; 1 mg): 1 (2) n (%)
- Somnolence ([1]; 1 mg): 20 (40) n (%)
- Vision blurred ([1]; 1 mg): 0 n (%)
- AE profile compared with triazolam ([1]; 6 mg): AE profile than triazolam, and Compound (1C) at 6 and 10 mg doses had similar profiles as triazolam
- certain AE results (ataxia, hiccups, amnesia, diplopia) compared with triazolam at therapeutic doses ([1]; 6 mg (supratherapeutic dose)): superior to triazolam
- Amnesia ([1]; 6 mg): 0 n (%)
- Ataxia ([1]; 6 mg): 7 (14) n (%)
- Diplopia ([1]; 6 mg): 0 n (%)
- Dizziness ([1]; 6 mg): 3 (6) n (%)
- Euphoric mood ([1]; 6 mg): 1 (2) n (%)
- Headache ([1]; 6 mg): 2 (4) n (%)
- Hiccups ([1]; 6 mg): 0 n (%)
- Nausea ([1]; 6 mg): 2 (4) n (%)
- Somnolence ([1]; 6 mg): 45 (90) n (%)
- Vision blurred ([1]; 6 mg): 2 (4) n (%)
- AE profile compared with triazolam ([1]; 10 mg): AE profile than triazolam, and Compound (1C) at 6 and 10 mg doses had similar profiles as triazolam
- certain AE results (ataxia, hiccups, amnesia, diplopia) compared with triazolam at therapeutic doses ([1]; 10 mg (supratherapeutic dose)): superior to triazolam
- Amnesia ([1]; 10 mg): 0 n (%)
- Ataxia ([1]; 10 mg): 13 (26) n (%)
- Diplopia ([1]; 10 mg): 2 (4) n (%)
- Dizziness ([1]; 10 mg): 5 (10) n (%)
- Euphoric mood ([1]; 10 mg): 1 (2) n (%)
- Headache ([1]; 10 mg): 2 (4) n (%)
- Hiccups ([1]; 10 mg): 0 n (%)
- Nausea ([1]; 10 mg): 2 (4) n (%)
- Somnolence ([1]; 10 mg): 47 (94) n (%)
- Vision blurred ([1]; 10 mg): 3 (6) n (%)
- safety and tolerability ([1]; doses 1, 6 and 10 mg): well tolerated
- mean fraction of dose excreted unchanged in urine over 48 hours (Fe48) (clinical [2]; 0.6 mg): 96%
- mean fraction of dose excreted unchanged in urine over 24 hours (Fe24) (clinical [2]; 0.6 mg): 90%
- mean fraction of dose excreted unchanged in urine over 48 hours (Fe48) (clinical [2]; 2 mg): 100%
- mean fraction of dose excreted unchanged in urine over 24 hours (Fe24) (clinical [2]; 2 mg): 102%
- mean fraction of dose excreted unchanged in urine over 48 hours (Fe48) (clinical [2]; 10 mg): 84%
- mean fraction of dose excreted unchanged in urine over 24 hours (Fe24) (clinical [2]; 10 mg): 81%
- time of urinary excretion of most of the unchanged compound (clinical [2]; across the dose range, days 1 and 16): during the first 8 hours
- CL renal (clinical [2]; human, in vivo, all dose levels, days 1 and 16, read-out: mean CLr): 274 to 354 mL/min
- Time to maximum concentration [3]: approximately 1.5 hours
- Average % Elimination, Fecal ([4]; Rat (female)): 27.9%
- Average % Elimination, Fecal + Urinary ([4]; Rat (female)): 94.7%
- Average % Elimination, Urinary ([4]; Rat (female)): 66.8%
- Average % Elimination, Fecal ([4]; Rat (male)): 41.6%
- Average % Elimination, Fecal + Urinary ([4]; Rat (male)): 96.0%
- Average % Elimination, Urinary ([4]; Rat (male)): 54.4%
- mean improvement in WASO net of placebo, compared with suvorexant ([5]; 0.5 mg Compound (1C) vs 10 mg or 20 mg suvorexant, Night 1, FIG. 9): nearly comparable to
- mean improvement in WASO net of placebo, compared with zolpidem ([5]; 0.5 mg Compound (1C) vs 12.5 mg zolpidem, Night 1, FIG. 9): far greater than
- mean change in DSST score net of placebo, compared with suvorexant ([5]; 0.5 mg): small and comparable
- mean improvement in SE net of placebo, compared with suvorexant ([5]; 1.0 mg Compound (1C) vs 10 mg suvorexant, Night 1, FIG. 8): greater than
- mean improvement in SE net of placebo, compared with zolpidem ([5]; 1.0 mg Compound (1C) vs 12.5 mg zolpidem, Night 1, FIG. 8): greater than
- mean improvement in WASO net of placebo, compared with suvorexant ([5]; 1.0 mg Compound (1C) vs 40 mg suvorexant, Night 1, FIG. 9): nearly comparable to
- mean change in DSST score net of placebo, compared with suvorexant ([5]; 1.0 mg): small and comparable
- mean improvement in LPS net of placebo, compared with suvorexant ([5]; 6.0 mg Compound (1C) vs 10 mg suvorexant, Night 1, FIG. 10): comparable to
- mean improvement in SE net of placebo, compared with suvorexant ([5]; 6.0 mg Compound (1C) vs 40 mg suvorexant, Night 1, FIG. 8): comparable to
- mean improvement in LPS net of placebo, compared with suvorexant or zolpidem ([5]; up to 6.0 mg Compound (1C) vs 20 mg suvorexant or 12.5 mg zolpidem, Night 1, FIG. 10): not as great as
- major elimination pathway (clinical [6]; human): Renal elimination
- major metabolite in human plasma (clinical [6]; human plasma): No major metabolite has been identified
- renal clearance (adjusted by plasma protein binding) compared with glomerular filtration rate (clinical [6]; human, in vivo): higher than the human glomerular filtration rate
- Tmax (clinical [6]; human, in vivo, po): ~1.5 h
- half-life (clinical [6]; human, in vivo, po): 2 to 3 h
- dose proportionality of exposure (clinical [6]; once a day dosing for 2 weeks): approximately dose-proportional exposure up to 10 mg
- dose proportionality of exposure (clinical [6]; single oral administration): approximately dose-proportional exposure up to 10 mg
- unchanged drug recovered in urine (clinical [6]; within 48 hours): 80-100%
